Assay results published in patent publication US20070244173A1, “6,7-Dihydroxy-8-Phenyl-3,6,7,8-Tetrahydro-Chromeno [7,8-d] Imidazole Derivatives and Their Use as Gastric Acid Secretion Inhibitors” (Altana Pharma AG, priority 2004, published 2007).

How the values were obtained:
[1] = test system: pentagastrin-stimulated acid secretion of the perfused rat stomach; assay: Secretion-inhibiting action on the perfused rat stomach (pentagastrin-stimulated acid secretion, intraduodenal administration in vivo); conditions: iv, dose 2 μmol/kg i.d., anesthetized female CD rat, pentagastrin 1 μg/kg i.v. infusion
Description: Testing of the Secretion-Inhibiting Action on the Perfused Rat Stomach
In Table A which follows, the influence of the compounds of the formula 1 according to the invention on the pentagastrin-stimulated acid secretion of the perfused rat stomach after intraduodenal administration in vivo is shown.
The abdomen of anesthetized rats (CD rat, female, 200-250 g; 1.5 g/kg i.m. urethane) was opened after tracheotomy by a median upper abdominal incision and a PVC catheter was fixed transorally in the esophagus and another via the pylorus such that the ends of the tubes just projected into the gastric lumen. The catheter leading from the pylorus led outward into the right abdominal wall through a side opening.
After thorough rinsing (about 50-100 ml), warm (37° C.) physiological NaCl solution was continuously passed through the stomach (0.5 ml/min, pH 6.8-6.9; Braun-Unita I). The pH (pH meter 632, glass electrode EA 147; φ=5 mm, Metrohm) and, by titration with a freshly prepared 0.01N NaOH solution to pH 7 (Dosimat 665 Metrohm), the secreted HCl were determined in the effluent in each case collected at an interval of 15 minutes.
The gastric secretion was stimulated by continuous infusion of […] (=1.65 ml/h) of i.v. pentagastrin (left femoral vein) about 30 min after the end of the operation (i.e. after determination of 2 preliminary fractions). The substances to be tested were administered intraduodenally in a 2.5 ml/kg liquid volume 60 min after the start of the continuous pentagastrin infusion. The body temperature of the animals was kept at a constant 37.8-38° C. by infrared irradiation and heat pads (automatic, stepless control by means of a rectal temperature sensor).

| Structure (SMILES) | melting point | inhibition in vivo at 2 µmol/kg [1] |
| --- | --- | --- |
| COCCO[C@@H]1c2ccc3c(nc(C)n3C)c2O[C@H](c2ccccc2)[C@H]1O [Example 1, (6R,7S,8R)-7-Hydroxy-6-(2-methoxy-ethoxy)-2,3-dimethyl-8-phenyl-3,6,7,8-tetrahydro-chromeno[7,8-d]imidazole] |  | > 50% |
| CCO[C@@H]1c2ccc3c(nc(C)n3C)c2O[C@H](c2ccccc2)[C@H]1O [Example 4, (6R,7S,8R)-6-Ethoxy-7-hydroxy-2,3-dimethyl-8-phenyl-3,6,7,8-tetrahydro-chromeno[7,8-d]imidazole] | 222 °C | > 50% |
| Cc1nc2c3c(ccc2n1C)[C@H]1OCCO[C@@H]1[C@@H](c1ccccc1)O3 [Example 6, (5S,6R,10R)-16,17-Dimethyl-6-phenyl-2,3,5,6,10,17-hexahydro-1,4,7-trioxa-15,17-diaza-cyclopenta[a]phenanthrene] | 307 °C | > 50% |
| COCCO[C@@H]1c2ccc3c(nc(C)n3C)c2O[C@H](c2ccccc2)[C@H]1OC(=O)COC [Example 7, (6R,7S,8R)-7-(2-Methoxy-acetoxy)-6-(2-methoxy-ethoxy)-2,3-dimethyl-8-phenyl-3,6,7,8-tetrahydro-chromeno[7,8-d]imidazole] | 200 °C | > 50% |
| COCCO[C@@H]1c2ccc3c(nc(C)n3C)c2O[C@H](c2ccccc2)[C@H]1OC(=O)CN(C)C [Example 8, (6R,7S,8R)-7-(2-Dimethylamino-acetoxy)-6-(2-methoxy-ethoxy)-2,3-dimethyl-8-phenyl-3,6,7,8-tetrahydro-chromeno[7,8-d]imidazole] | 175 °C | > 50% |
| Cc1nc2c3c(ccc2n1C)[C@@H](OCC(F)F)[C@H](O)[C@@H](c1ccccc1)O3 [Example 9, (6R,7S,8R)-7-Hydroxy-6-(2,2-difluoro-ethoxy)-2,3-dimethyl-8-phenyl-3,6,7,8-tetrahydro-chromeno[7,8-d]imidazole] | 249 °C | > 50% |
| C=CCn1c(C)nc2c3c(ccc21)[C@@H](OCCF)[C@H](O)[C@@H](c1ccccc1)O3 [Example 14, (6R,7S,8R)-3-Allyl-7-hydroxy-6-(2-fluoro-ethoxy)-2-methyl-8-phenyl-3,6,7,8-tetrahydro-chromeno[7,8-d]imidazole] | 117 °C |  |
| Cc1nc2c3c(ccc2n1C1CC1)[C@@H](O)[C@H](O)[C@@H](c1ccccc1)O3 [Example 17, (6R,7S,8R)-3-Cyclopropyl-6,7-dihydroxy-2-methyl-8-phenyl-3,6,7,8-tetrahydro-chromeno[7,8-d]imidazole] |  | < 50% |
| COCCO[C@H]1c2ccc3c(nc(C4CC4)n3C)c2O[C@H](c2ccccc2)[C@H]1O [Example 22, (6S,7S,8R)-2-Cyclopropyl-7-hydroxy-6-(2-methoxy-ethoxy)-3-methyl-8-phenyl-3,6,7,8-tetrahydro-chromeno[7,8-d]imidazole] | 133 °C |  |

Further lines, with some results ahead:

| melting point | Structure (SMILES) | inhibition in vivo at 2 µmol/kg [1] |
| --- | --- | --- |
| 163 °C | COCCO[C@H]1c2ccc3c(nc(C)n3C)c2O[C@H](c2ccccc2)[C@H]1O [Example 2, (6S,7S,8R)-7-Hydroxy-6-(2-methoxy-ethoxy)-2,3-dimethyl-8-phenyl-3,6,7,8-tetrahydro-chromeno[7,8-d]imidazole] | < 50% |
| 262.5 °C | Cc1nc2c3c(ccc2n1C)[C@@H](O)[C@H](O)[C@@H](c1ccccc1)O3 [Example 3, (6R,7S,8R)-6,7-Dihydroxy-2,3-dimethyl-8-phenyl-3,6,7,8-tetrahydro-chromeno[7,8-d]imidazole] | < 50% |
| 226 °C | Cc1nc2c3c(ccc2n1C)[C@@H](OCCF)[C@H](O)[C@@H](c1ccccc1)O3 [Example 5, (6R,7S,8R)-6-(2-Fluoro-ethoxy)-7-hydroxy-2,3-dimethyl-8-phenyl-3,6,7,8-tetrahydro-chromeno[7,8-d]imidazole] | > 50% |
| 163 °C | Cc1nc2c3c(ccc2[nH]1)[C@@H](O)[C@H](O)[C@@H](c1ccccc1)O3 [Example 10, (6R,7S,8R)-6,7-Dihydroxy-2-methyl-8-phenyl-3,6,7,8-tetrahydro-chromeno[7,8-d]imidazole] |  |
| 79 °C | C=CCn1c(C)nc2c3c(ccc21)[C@@H](OCCOC)[C@H](O)[C@@H](c1ccccc1)O3 [Example 11, (6R,7S,8R)-3Allyl-7-hydroxy-6-(2-methoxy-ethoxy)-2-methyl-8-phenyl-3,6,7,8-tetrahydro-chromeno[7,8-d]imidazole] | < 50% |
| 61 °C | CC=Cn1c(C)nc2c3c(ccc21)[C@@H](OCCOC)[C@H](O)[C@@H](c1ccccc1)O3 [Example 12, (6R,7S,8R)-7-Hydroxy-6-(2-methoxy-ethoxy)-2-methyl-8-phenyl-3-propenyl-3,6,7,8-tetrahydro-chromeno[7,8-d]imidazole] |  |
| 117 °C | COCCO[C@@H]1c2ccc3[nH]c(C)nc3c2O[C@H](c2ccccc2)[C@H]1O [Example 13, (6R,7S,8R)-7-Hydroxy-6-(2-methoxy-ethoxy)-2-methyl-8-phenyl-3,6,7,8-tetrahydro-chromeno[7,8-d]imidazole] |  |
| 213 °C | CC=Cn1c(C)nc2c3c(ccc21)[C@H]1OCCO[C@@H]1[C@@H](c1ccccc1)O3 [Example 15, (5S,6R,10R)-16-Methyl-6-phenyl-17-propenyl-2,3,5,6,10,17-hexahydro-1,4,7-trioxa-15,17-diaza-cyclopenta[a]phenanthrene] | > 50% |
| 260 °C | Cc1nc2c3c(ccc2[nH]1)[C@H]1OCCO[C@@H]1[C@@H](c1ccccc1)O3 [Example 16, (5S,6R,10R)-16-Methyl-6-phenyl-2,3,5,6,10,17-hexahydro-1,4,7-trioxa-15,17-diaza-cyclopenta[a]phenanthrene] | > 50% |
| 183 °C | COCCO[C@@H]1c2ccc3c(nc(C)n3C3CC3)c2O[C@H](c2ccccc2)[C@H]1O [Example 18, (6R,7S,8R)-3-Cyclopropyl-7-hydroxy-6-(2-methoxy-ethoxy)-2-methyl-8-phenyl-3,6,7,8-tetrahydro-chromeno[7,8-d]imidazole] | < 50% |
| 218 °C | COCCO[C@H]1c2ccc3c(nc(C)n3C3CC3)c2O[C@H](c2ccccc2)[C@H]1O [Example 19, (6S,7S,8R)-3-Cyclopropyl-7-hydroxy-6-(2-methoxy-ethoxy)-2-methyl-8-phenyl-3,6,7,8-tetrahydro-chromeno[7,8-d]imidazole] | > 50% |
| 157 °C | COCCO[C@@H]1c2ccc3c(nc(C4CC4)n3C)c2O[C@H](c2ccccc2)[C@H]1O [Example 21, (6R,7S,8R)-2-Cyclopropyl-7-hydroxy-6-(2-methoxy-ethoxy)-3-methyl-8-phenyl-3,6,7,8-tetrahydro-chromeno[7,8-d]imidazole] |  |
